# Measurements from patent US6896895B2, “Carotenoid esters, carotenoid-enriched feeds, and methods of pigmenting foods and foodstuffs” (DSM IP Assets B.V., priority 2000, dated 2005).
# Marks after values point to notes of the source that are not given here.
# Assays:
# [1] = tested on: skin and shanks of broilers; test: Reflectance colorimetry and visual classification of skin and shanks of broilers; assay type: in vivo, broiler chickens (Ross 308, Ross 508); design: key to Shanks Visual Classification / Skin Visual Classification: −; (+); +; ++ = good color; o = orange; settings: dry carcasses, average over doses, Table 6
# Procedure: (§1) Pigmentation efficacy was assessed in egg yolk, in the back skin of the broiler carcass, and in broiler shanks by reflectance colorimetry accompanied by visual scoring (Roche Colour Fan). The deposition of the ethyl-β-apo-8′-carotenoate (control) and the other carotenoid esters was determined in egg yolk and in the broiler back skin. In addition, the carotenoid levels in plasma and abdominal fat were measured.
# (§2) The trials were carried out using chickens of the type Ross 308 (trials MC-24/98 and MC-02/99) and Ross 508 (trials MC-11/99, MC-16/99, MC-24/99, and MC-03/00) (Couvir de la Bohardière, F-49290 Saint Laurent de la Plaine). One-day old broiler chickens, separated by sex, were divided by weight into experimental groups of ten animals each and reared in floor pens littered with wood shavings. The chickens were fed a low carotenoid basal grower diet until day 22 (trials MC-24/98, MC-02/99, and MC-11/99) or until day 15 (trials MC-16/99, MC-24/99, and MC-03/00). The low carotenoid basal grower diet contained less than 2 mg total xanthophylls per kg of feed, and its composition is described in Table 2. For the subsequent experimental period of three weeks, the birds received the basal diet supplemented with an appropriate pigment. The feed was given in the form of crumbled pellets during the first week and as pellets thereafter. The animals had unrestricted access to feed and water. A given treatment involved one group of male and one group of female chickens. Each group of chickens was weighed at day 22 (trials MC-24/98, MC-02/99, and MC-11/99) or day 15 (trials MC-16/99, MC-24/99, and MC-03/00) and on day 43. On day 42, five chickens per group were selected at random, labelled, and blood samples were taken from the jugular vein. At the end of the experiment (day 44) the animals were slaughtered in a commercial slaughterhouse (Freyburger, Dannemarie, France). The following day, the color of the skin (hind back of carcasses) and the shanks of the labelled chicken were measured by reflectance colorimetry (Minolta CR 200 apparatus, CIE-Lab system). Samples of the dorsal skin and abdominal fat were obtained, pooled for each experimental group, and the carotenoid concentration was determined. The concentration of carotenoids in feed, plasma, skin, and abdominal fat was determined by standard procedures as described after Tables 1 and 2.
# The color of broiler skin and shanks was measured using a tristimulus Minolta CR-300 Chromameter with diffuse D65-illumination and a 0° viewing angle. The color of the skin was read at three different points on the back of the dry broiler carcasses and average values of the triple measurements were recorded. The color of shanks was measured using single measurements at the ball between the toes.
# (§3) The color data were expressed as CIE L*a*b*-values including h*(hue) and C* (chroma). The values given in the tables per treatment and trial represent averages of color measurements of four egg yolk pools, ten broiler back skins, or ten broiler shanks (5 males and 5 females).
# egg yolk = test: Egg yolk colour: reflectance colorimetry and Roche Yolk Colour Fan; assay type: in vivo, laying hens (ISA Brown); settings: egg yolk, laying hens
# Procedure: as §1
# The trials were carried out following the standard experimental design used for egg yolk pigmentation trials at the Roche Research Center for Animal Nutrition (CRNA, F-68305 Village-Neuf, France). Each year in February the pigmentation trials are started with a new flock of layers. At the beginning of the trials the age of the laying hens (192 birds, type ‘ISA Brown’) were as follows:
# (§4) Preceding the trials the hens were fed a low carotenoid basal diet (produced at the CRNA) without carotenoid supplementation for at least 28 days. During the trials, the control group received the low carotenoid basal diet containing less than 2 mg total xanthophylls per kg of feed. The other animals were fed this diet supplemented with the appropriate pigments for three weeks. The diet was given to the animals ad libitum in mash form. The hens had free access to tap water. Beside the unsupplemented control treatment, treatments were carried out involving the provision of supplemented feed, the results of these treatments being presented in Tables 7-9.
# Egg yolk color was assessed as described by Steinberg, et al. (Arch. Geflügelk 64 (4), 180-187 (2000)). The yolks were manually separated from the whites of the eggs. The isolated yolks of three to six eggs were combined, weighed, and stirred with a glass rod until the color appeared homogeneous. The color hue was visually scored using the Roche Yolk Colour Fan (RYCF, version 1993). An aliquot of the pooled egg yolks was transferred into a glass cuvette yielding an approximately 2 cm thick layer. The color was then measured by means of a Dr. Lange Xeno Color LS 100 spectro-colorimeter with diffuse D65-illumination and a 8° viewing angle.
# as §3
# [2] = Carotenoid ester content and deposition rate in egg yolk of laying hens (HPLC); assay type: in vivo, laying hens (ISA Brown); settings: egg yolk; for Deposition Rate % of Controls: Table 10
# Procedure: as §1
# Each year in February the pigmentation trials are started with a new flock of layers.
# as §4, with “water.” for “water. Beside the unsupplemented control treatment, treatments were carried out involving the provision of supplemented feed, the results of these treatments being presented in Tables 7-9.”
# Peaks were related to all-E- and Z-isomers of the various carotenoid esters by chromatography of heat-isomerized solutions of the respective reference substances in n-hexane. The HPLC system was calibrated with the all-E-isomer of ethyl β-apo-8′-carotenoate. The response factor of the various derivatives was deduced from that of ethyl β-apo-8′-carotenoate taking into account the respective molecular weight. The content of the Z-isomer fractions was calculated based on the response of the all-E-isomer and using a correction factor of 1.4 to account for the lower specific absorbance of the Z-isomers.
# (§5) The HPLC-system for in-feed analysis was also used to quantify the carotenoid esters in egg yolk, broiler tissues, and broiler plasma, but the extraction procedure was different for the various matrices.
# For the extraction of egg yolk, 10 g of pooled and homogenised yolk were mixed with 10 ml of demineralized water using a dispersion instrument (Polytron). 1.0 g of diluted egg yolk was introduced into a 10 ml test tube with 1.0 ml of demineralized water and 2.0 ml of ethanol, and the contents were mixed on a Vortex shaker. After addition of 4.0 ml of n-hexane, the mixture was further treated as described for plasma.
# [3] = Carotenoid ester content in plasma, back skin and abdominal fat of broilers (HPLC); assay type: in vivo, broiler chickens (Ross 308, Ross 508); settings: average over doses, Table 4
# Procedure: as §1, §2
# The content of the various carotenoid esters in feed was determined according to the method of Schierle, et al. (J. Schierle , N. Faccin, V. Riegert, Analytical Methods for Vitamins and Carotenoids in Feed, Revised supplement: Determination of Stabilized Apocarotenoic Ester and Canthaxanthin in Premixes and Feeds, Roche publication no. 50771 (1995), publicly available from. F. Hoffmann-La Roche Ltd., CH-4070 Basel). This method was modified in that the mobile phase of the normal-phase HPLC contained 0.5% instead of 7% acetone in n-hexane, improving the separation of the E/Z-isomers of the carotenoid esters. Peaks were related to all-E- and Z-isomers of the various carotenoid esters by chromatography of heat-isomerized solutions of the respective reference substances in n-hexane. The HPLC system was calibrated with the all-E-isomer of ethyl β-apo-8′-carotenoate. The response factor of the various derivatives was deduced from that of ethyl β-apo-8′-carotenoate taking into account the respective molecular weight. The content of the Z-isomer fractions was calculated based on the response of the all-E-isomer and using a correction factor of 1.4 to account for the lower specific absorbance of the Z-isomers.
# as §5
# For plasma extraction, 1.0 g of the well-mixed plasma sample was introduced into a 10 ml test tube with 1.0 ml of demineralized water and 4.0 ml of ethanol, and the contents mixed on a Vortex shaker. […]
# [4] = trial H-18/99, 5.0 mg/kg feed, Table 8
# [5] = trial H-18/99, 5.0 mg/kg feed, Table 10
# [6] = trial H-12/99, 2, 4, 8 mg/kg feed, Table 8
# [7] = trial H-12/99, 2, 4, 8 mg/kg feed, Table 10
# [8] = trials H-18, 22/99, 1, 2, 4, 5, 8 mg/kg feed, Table 8
# [9] = trials H-18, 22/99, 1, 2, 4, 5, 8 mg/kg feed, Table 10
# [10] = control, n = 16, 1.0-8.0 mg/kg feed
Compound,"Deposition Rate Target Values % of Controls [2, 4] [%]","Ethyl β-apo-8′-carotenoate Equivalents % of Controls [2, 4] [%]","Deposition Rate % of Controls ([2]; trial H-18/99, 5.0 mg/kg feed) [%]",Analytical Content as Equivalent of Ethyl β-apo-8′-carotenoate in % of control Fat [3] [%],Analytical Content as Equivalent of Ethyl β-apo-8′-carotenoate in % of control Plasma [3] [%],Analytical Content as Equivalent of Ethyl β-apo-8′-carotenoate in % of control Skin [3] [%],Shanks Chroma C*ab % of Controls [1] [%],Shanks Color Hue h*ab % of Controls [1] [%],Shanks Visual Classification [1],Skin Chroma C*ab % of Controls [1] [%],Skin Color Hue h*ab % of Controls [1] [%],Skin Visual Classification [1],Color Fan Value % of Controls (egg yolk; [4]) [%],Chroma C*ab % of Controls (egg yolk; [5]) [%],Color Fan Value % of Controls (egg yolk; [5]) [%],Color Hue h*ab % of Controls (egg yolk; [5]) [%],further results
"CC(C=CC=C(C)C=CC1=C(C)CCCC1(C)C)=CC=CC=C(C)C=CC=C(C)C(=O)OCC(C)C [(4), isobutyl beta-apo-8′-carotenoate]",83,74,83,–,58,–,72,105,(+),84,98,(+),116,104,116,101,–
"CCC(C)OC(=O)C(C)=CC=CC(C)=CC=CC=C(C)C=CC=C(C)C=CC1=C(C)CCCC1(C)C (stereo not drawn) [(5), sec. butyl beta-apo-8′-carotenoate]",–,–,–,53,94,74,100,101,+,100,101,+,–,–,–,–,"Color Fan Value % of Controls (egg yolk; [8]): 88%; Chroma C*ab % of Controls (egg yolk; [9]): 103%; Color Hue h*ab % of Controls (egg yolk; [9]): 102%; Color Fan Value % of Controls (egg yolk; trials H-18, 22/99, 1, 2, 4, 5, 8 mg/kg feed, comparison within same trials, Table 10): 93^1) %; Deposition Rate Target Values % of Controls [2, 8]: 97%; Ethyl β-apo-8′-carotenoate Equivalents % of Controls [2, 8]: 90%; Deposition Rate % of Controls ([2]; trials H-18, 22/99, 1, 2, 4, 5, 8 mg/kg feed, comparison within same trials): 84^1) %"
"CCOC(=O)/C(C)=C/C=C/C(C)=C/C=C/C=C(C)/C=C/C=C(C)/C=C/C1=C(C)CCCC1(C)C [Ethyl β-apo-8′-carotenoate, ethyl beta-apo-8′-carotenoate, reference compound]",–,–,–,–,–,–,–,–,–,–,–,–,–,–,–,–,"Color Fan Value % of Controls (egg yolk; [10]): 100%; Deposition Rate Target Values % of Controls [2, 10]: 100%; Ethyl β-apo-8′-carotenoate Equivalents % of Controls [2, 10]: 100%"

# Further lines, with some results ahead:
"Deposition Rate Target Values % of Controls [2, 4] [%]","Ethyl β-apo-8′-carotenoate Equivalents % of Controls [2, 4] [%]","Deposition Rate % of Controls ([2]; trial H-18/99, 5.0 mg/kg feed) [%]",Analytical Content as Equivalent of Ethyl β-apo-8′-carotenoate in % of control Fat [3] [%],Analytical Content as Equivalent of Ethyl β-apo-8′-carotenoate in % of control Plasma [3] [%],Analytical Content as Equivalent of Ethyl β-apo-8′-carotenoate in % of control Skin [3] [%],Compound,Shanks Chroma C*ab % of Controls [1] [%],Shanks Color Hue h*ab % of Controls [1] [%],Shanks Visual Classification [1],Skin Chroma C*ab % of Controls [1] [%],Skin Color Hue h*ab % of Controls [1] [%],Skin Visual Classification [1],Color Fan Value % of Controls (egg yolk; [4]) [%],Chroma C*ab % of Controls (egg yolk; [5]) [%],Color Fan Value % of Controls (egg yolk; [5]) [%],Color Hue h*ab % of Controls (egg yolk; [5]) [%],further results
99,95,99,85,88,87,"COC(=O)C(C)=CC=CC(C)=CC=CC=C(C)C=CC=C(C)C=CC1=C(C)CCCC1(C)C [(1), methyl beta-apo-8′-carotenoate]",97,101,(+),97,100,(+),130,104,130,99,–
–,–,–,39,68,45,"CCCOC(=O)C(C)=CC=CC(C)=CC=CC=C(C)C=CC=C(C)C=CC1=C(C)CCCC1(C)C [(2), n-propyl beta-apo-8′-carotenoate]",108,99,(+),93,97,(+),–,–,–,–,"Color Fan Value % of Controls (egg yolk; [6]): 110%; Chroma C*ab % of Controls (egg yolk; [7]): 95%; Color Fan Value % of Controls (egg yolk; [7]): 110%; Color Hue h*ab % of Controls (egg yolk; [7]): 101%; Deposition Rate Target Values % of Controls [2, 6]: 77%; Ethyl β-apo-8′-carotenoate Equivalents % of Controls [2, 6]: 73%; Deposition Rate % of Controls ([2]; trial H-12/99, 2, 4, 8 mg/kg feed): 77%"
